We go through three compounds from article PMC6150245 (Molecules : A Journal of Synthetic Chemistry and Natural …, 2017).

Broadly, the MIC is the lowest concentration that inhibits growth of the organism. Read a low MIC as greater potency. The MBC is the lowest tested concentration that kills the bacteria rather than only halting them. Read a low MBC as greater bactericidal potency.

Converted amounts (≈) assume the structure as drawn. “Also recorded” adds a separate entry of the source. Where two headings read alike, the source gives them in different places.

One data set in a line: 25% human male serum. The conditions noted are these: 37 °C, up to 30 h.
Another data set deals with E. coli ATCC25922. Briefly: MIC, microdilution in MH broth (initial screening). The data set is classed as cell-based, Escherichia coli. Particulars: 24 h, 37 °C, resazurin, triplicate. How it is done:
(§1) The minimum inhibitory concentrations (MIC) were determined following the Clinical and Laboratory Standards Institute (CLSI) recommendations. Antibacterial and antifungal activity tests were performed using the microdilution method. For initial screening, peptides were tested against C. albicans ATCC18804, E. coli ATCC25922, and S. aureus ATCC25923. Briefly, bacterial cells in MH broth (80 μL aliquots containing 1.5 × 10^7 CFU) were incubated with synthetic peptides (serial dilution from 512 to 1 μM) dissolved in Milli-Q water. After incubation for 24 h at 37 °C, the microtiter plates were analyzed visually by addition of resazurin. For the antifungal assays, the culture medium was RPMI 1640 buffered with L-glutamine (pH 7.2), 0.165 M morpholinepropanesulfonic acid (MOPS), and 2% glucose. Cell suspensions (final concentration of 1 × 10^3–2.5 × 10^3 CFU/mL) were inoculated on a microdilution plate previously prepared with serially diluted synthetic peptides (128–1 μM). The plates were incubated for 48 h at 37 °C. Each assay was performed in triplicates. Additionally, amphotericin B and fluconazole were used as the control drugs. MIC was defined as the lowest concentration of peptide at which no growth was detected.
A general note: Dilution methods test growth across graded concentrations, often in twofold steps.

In another data set the test system is C. albicans ATCC18804. The experiment in a line: Antifungal MIC, microdilution in RPMI 1640. The data set is classed as cell-based, Candida albicans. Particulars: C. albicans ATCC18804, RPMI 1640, 48 h, 37 °C, peptides 128-1 µM, triplicate. Here is the method:
as §1

Data set [1] relates to S. aureus ATCC25923. The experiment in a line: MIC, microdilution in MH broth (initial screening). In kind it is cell-based, Staphylococcus aureus. The conditions noted are these: 24 h, 37 °C, resazurin, triplicate. Here is the method: as §1
The next data set has as its system human red blood cells. The experiment in a line: Hemolysis assay. In kind it is cell-based. The conditions noted are these: 1% (v/v) human erythrocytes in Tris-saline pH 7.4, 1 h, 37 °C, absorbance 405 nm, triplicate. Here is the method: Peptide hemolysis assays were performed as previously described by Castro et al.. Briefly, freshly prepared human red blood cells (RBCs) were washed three times with 0.01 M Tris-HCl (pH 7.4) containing 0.15 M NaCl (Tris-saline). A suspension of 1% (v/v) erythrocytes was made with packed RBCs resuspended in Tris-saline. Peptides were dissolved in Tris-saline at an initial concentration of […] and serially diluted in the same buffer to determine the concentration that triggered 50% hemolysis (HC50). As the positive control (100% lysis), 1% (v/v) Triton X-100 solution was used. After 1 h of incubation at 37 °C, the samples were centrifuged at 3000× g for 5 min. Then, 100 µL aliquots of the supernatant were transferred to 96-well microplates, and the absorbance was determined at 405 nm. The assay was performed in triplicates.

The test system of the next data set is S. aureus SA16. The data set is classed as cell-based, Staphylococcus aureus. Particulars: S. aureus SA16 (MRSA). How it is done: (§2) After confirming antibacterial activity, the peptides were tested against gram-positive and gram-negative multidrug-resistant bacteria, including strains of clinical origin. The peptides, p-BthTX-I, des-Lys^12/(p-BthTX-I)2, and Lys^13-(p-BthTX-I)2 were serially diluted (512–1 μM) in cation-adjusted BBL MH II broth (CAMHB; Becton, Dickson and Co., Sparks, MD, USA) as described by CLSI. Bacteria at 5.0 × 10^5 CFU/mL were added to the media and incubated for 24 h at 37 °C. […] Assays were performed in duplicates, and sterile broth was used as the negative control. To determine the minimal bactericidal concentration (MBC), 100 µL from each well of the MIC assay plates that inhibited bacterial growth were sub-cultured onto MH agar (MHA) plates. […] If the ratio of MBC/MIC was >4, the activity of the peptide was considered bacteriostatic, as described previously.

For data set [2], the system named is S. aureus ATCC25923. The data set is classed as cell-based, Staphylococcus aureus. Particulars: S. aureus ATCC25923, CAMHB, 24 h, 37 °C, duplicate. Here is the method: as §2
The test system of a further data set is S. aureus SA90. The data set is classed as cell-based, Staphylococcus aureus. Particulars: S. aureus SA90, sub-culture on MH agar, 99.9% death. Here is the method:
as §2

A further data set concerns S. aureus SA33. The data set is classed as cell-based, Staphylococcus aureus. The conditions noted are these: S. aureus SA33, sub-culture on MH agar, 99.9% death. How it is done:
as §2

Another data set concerns S. aureus SA88. In kind it is cell-based, Staphylococcus aureus. How it is done: as §2
The subject of another data set is S. epidermidis ATCC35984. In kind it is cell-based, Staphylococcus epidermidis. Here is the method: as §2
The next data set has as its system E. coli CA4. In kind it is cell-based, Escherichia coli. Particulars: E. coli CA4 (commensal), CAMHB, 24 h, 37 °C, duplicate. How it is done: as §2
The subject of another data set is E. coli ATCC35218. The data set is classed as cell-based, Escherichia coli. How it is done: as §2
The subject of data set [3] is K. pneumoniae ATCCBAA1705. The data set is classed as cell-based, Klebsiella pneumoniae. Particulars: K. pneumoniae ATCCBAA1705 (KPC), CAMHB, 24 h, 37 °C, duplicate. How it is done: as §2
For a further data set, the system named is K. pneumoniae NDM-1. In kind it is cell-based, Klebsiella pneumoniae. Particulars: K. pneumoniae NDM-1, sub-culture on MH agar, 99.9% death. Here is the method:
as §2

The subject of a further data set is K. pneumoniae ATCC700603. The data set is classed as cell-based, Klebsiella pneumoniae. Particulars: K. pneumoniae ATCC700603 (SHV-18), CAMHB, 24 h, 37 °C. How it is done: as §2
The next data set can be described thus: Serum stability assay. In kind it is in vitro ADME. Particulars: 25% human male serum, 37 °C, peptide 100 µM, analytical HPLC (C18) and LC/MS, duplicate. Here is the method: Crude peptides were purified by semi-preparative HPLC on a Shimadzu system (Tokyo, Japan) using a C18 reversed phase column (10 × 250 mm, Phenomenex, Torrance, CA, USA). Solvent A contained 0.045% trifluoroacetic acid (TFA) in water. Elution was achieved using a linear gradient (5–35%) of solvent B (0.036% TFA in acetonitrile) for 120 min at 5 mL/min. The purity of the peptides was determined by analytical HPLC on a Shimadzu system using a C18 column (4.6 × 150 mm, Phenomenex, Torrance, CA, USA) with a linear gradient of solvent B (5–95%) for 30 min at 1 mL/min. Liquid chromatography-mass spectrometry (LC/MS) was performed using a C18 column (2.0 × 30 mm, Shimadzu) attached to analytical HPLC and an amaZon ion trap mass spectrometer (Bruker Daltonics) using ESI. Peptides were eluted using a linear gradient of solvent B (5–95%) for 15 min at 0.2 mL/min.
Peptide stability assays were performed in diluted serum as previously described with minor modifications. First, 2 mL of 25% human male serum was centrifuged at 3000× g for 10 min; the supernatant was collected and incubated for 15 min at 37 °C. Next, peptides were added to the serum to a final concentration of 100 µM. Then, 200 µL of samples were collected at different time points during the assays, which were performed in duplicate. Analyses were performed by LC/MS and analytical HPLC, as described above.

In a further data set the test system is E. faecium VRE16. The data set is classed as cell-based, Enterococcus faecium. How it is done: as §2
The subject of another data set is E. faecium HSJRP8. In kind it is cell-based, Enterococcus faecium. Here is the method: as §2

Take KKYRYHLKPFCKK [(p-BthTX-I)2]: in the data set “25% human male serum”, the cleaved bond result was “Lys12-Lys13, major, 30 min; also recorded: Cys11-Lys12, major, 30 min” and the fragment found entry is “(p-BthTX-I)2 minus one Lys residue, first_seen, 5 min; also recorded: (p-BthTX-I)2 minus two Lys residues, major, 5 min; also recorded: (p-BthTX-I)2 minus three Lys residues, 20 min”.

With `CC(C)C[C@H](NC(=O)[C@H](Cc1c[nH]cn1)NC(=O)[C@H](Cc1ccc(O)cc1)NC(=O)[C@H](CCCNC(=N)N)NC(=O)[C@H](Cc1ccc(O)cc1)NC(=O)[C@H](CCCCN)NC(=O)[C@@H](N)CCCCN)C(=O)N[C@@H](CCCCN)C(=O)N1CCC[C@H]1C(=O)N[C@@H](Cc1ccccc1)C(=O)N[C@@H](CSSC[C@H](NC(=O)[C@H](Cc1ccccc1)NC(=O)[C@@H]1CCCN1C(=O)[C@H](CCCCN)NC(=O)[C@H](CC(C)C)NC(=O)[C@H](Cc1c[nH]cn1)NC(=O)[C@H](Cc1ccc(O)cc1)NC(=O)[C@H](CCCNC(=N)N)NC(=O)[C@H](Cc1ccc(O)cc1)NC(=O)[C@H](CCCCN)NC(=O)[C@@H](N)CCCCN)C(=O)N[C@@H](CCCCN)C(=O)O)C(=O)N[C@@H](CCCCN)C(=O)O` [des-Lys^13-(p-BthTX-I)2], the minimal inhibitory concentration (MIC) in the data set on E. coli ATCC25922 is listed as 32 µM (≈ 103 µg/mL); against C. albicans ATCC18804 it was greater than 128 µM; in the data set with S. aureus ATCC25923 [1] it was 128 µM (≈ 412 µg/mL). Also, in the data set on human red blood cells, the “HC50 (peptide concentration that produced 50% hemolysis)” value is on record as greater than 128 µM.

With `CC(C)C[C@H](NC(=O)[C@H](Cc1c[nH]cn1)NC(=O)[C@H](Cc1ccc(O)cc1)NC(=O)[C@H](CCCNC(=N)N)NC(=O)[C@H](Cc1ccc(O)cc1)NC(=O)[C@H](CCCCN)NC(=O)[C@@H](N)CCCCN)C(=O)N[C@@H](CCCCN)C(=O)N1CCC[C@H]1C(=O)N[C@@H](Cc1ccccc1)C(=O)N[C@@H](CS)C(=O)N[C@@H](CCCCN)C(=O)N[C@@H](CCCCN)C(=O)O` [p-BthTX-I], the MIC is 512 µM (≈ 890 µg/mL) against S. aureus SA16 (CAMHB, 24 h, 37 °C); greater than 512 µM against S. aureus ATCC25923 [2]; 512 µM (≈ 890 µg/mL) in the data set with S. aureus SA88 (S. aureus SA88 (MRSA, daptomycin heteroresistant), CAMHB, 24 h, 37 °C, duplicate); 128 µM (≈ 223 µg/mL) against S. epidermidis ATCC35984 (S. epidermidis ATCC35984, CAMHB, 24 h, 37 °C, duplicate); greater than 512 µM against E. coli CA4; 512 µM (≈ 890 µg/mL) against E. coli ATCC35218 (E. coli ATCC35218, CAMHB, 24 h, 37 °C, duplicate). For the same compound, the MIC in data set [3] was greater than 512 µM; against K. pneumoniae ATCC700603, greater than 512 µM; against E. faecium VRE16 (E. faecium VRE16 (vancomycin resistant), CAMHB, 24 h, 37 °C, duplicate), 128 µM (≈ 223 µg/mL); in the data set with E. faecium HSJRP8 (E. faecium HSJRP8 (daptomycin resistant), CAMHB, 24 h, 37 °C, duplicate), 32 µM (≈ 55.7 µg/mL). Also, the MBC with S. aureus SA16 (sub-culture on MH agar, 99.9% death) was 512 µM (≈ 890 µg/mL); against S. aureus SA90, 512 µM (≈ 890 µg/mL); against S. aureus SA33, greater than 512 µM; in the data set on S. aureus SA88 (S. aureus SA88, sub-culture on MH agar, 99.9% death) it was greater than 512 µM; in the data set with S. epidermidis ATCC35984 (S. epidermidis ATCC35984, sub-culture on MH agar, 99.9% death), 512 µM (≈ 890 µg/mL); in the data set with E. coli ATCC35218 (E. coli ATCC35218, sub-culture on MH agar, 99.9% death) it was greater than 512 µM. The MBC in the data set with K. pneumoniae NDM-1 is greater than 512 µM; with E. faecium VRE16 (E. faecium VRE16, sub-culture on MH agar, 99.9% death) it was greater than 512 µM; in the data set with E. faecium HSJRP8 (E. faecium HSJRP8, sub-culture on MH agar, 99.9% death) it was greater than 512 µM. The “Incubation time after which the peptide was completely degraded in human serum” value in “Serum stability assay” was 30 min.
